Measured values as given in US20230132582A1, “NOVEL USE OF ASPIRIN COMPOUND IN INCREASING NUCLEIC ACID EXPRESSION” (priority 2020, published 2023).

Experiments:
[1] = tested on: expression of luciferase from AAV9-Lxp3.3-Gluc virus; test: AAV9-mediated luciferase (Gluc) expression in plasma of mice pre-treated with aspirin at different doses (Example 2); type: in vivo, C57BL/6J mice
Description: (§1) Male C57BL/6J mice (purchased from Shanghai Jiesijie Experimental Animals Co., Ltd.) (n=4) with an average weight of 20 g were divided into six groups. Aspirin was used for intraperitoneal injection for 7 consecutive days (Day −7 to Day −1), at doses of 1 mg/kg, 15 mg/kg, 30 mg/kg, 50 mg/kg, 100 mg/kg, respectively, to five groups of mice. The sixth group was injected with 5% castor oil (in PBS buffer (catalogue number: 02-024-1ACS, BI)) as a control. On Day 0, AAV9-Lxp3.3-Gluc virus was injected intravenously (5×10^12 vg/kg) to each mouse in every group, and expression of luciferase was detected from Day 1 onwards.
Blood samples of mice were collected by retro-orbital bleeding. […] The contents of IFN-α and IFN-β were determined by using Mouse IFN-β ELISA kit (720131-2, Shanghai Mlbio Co., Ltd.), LEGEND MAX™ Mouse IFN-β ELISA Kit (439407, BioLegend), and Mouse IFN-α ELISA kit (706291-2, Shanghai Mlbio Co., Ltd.).
(§2) Coelenterazine h (40906ES02, Shanghai Yeasen Biotech Co., Ltd.) buffer was prepared first: to 500 mL of ultra-pure water was added 29.72 g of sodium ascorbate, and then 50 mL of Tris-HCl (1 mol/L, pH 7.4). […] of the above working solution is added to a […], and the relative light unit (RLU) was detected with a Synergy H1 multifunctional microplate reader.

[2] = tested on: IFN-α; test: Serum IFN-α ELISA after AAV9 injection with aspirin at different doses (Example 2); type: in vivo, C57BL/6J mice; settings: Day 3 post AAV9 injection, vs control group (FIG. 2)
Description: as §1
(§3) Blood samples of mice were collected by retro-orbital bleeding. Half of the volume of blood samples was added with sodium citrate at a ratio of 1:9 for anticoagulation, mixed, centrifuged within 30 minutes (6000 rpm, 5 mins), and the supernatant was collected as the mouse plasma, for detection of the expression of Gluc. The remaining blood sample was left at room temperature for 2 hours to separate the serum, centrifuged at 6000 rpm for 15 min, and the supernatant was collected as the mouse serum sample. The contents of IFN-α and IFN-β were determined by using Mouse IFN-β ELISA kit (720131-2, Shanghai Mlbio Co., Ltd.), LEGEND MAX™ Mouse IFN-β ELISA Kit (439407, BioLegend), and Mouse IFN-α ELISA kit (706291-2, Shanghai Mlbio Co., Ltd.).

[3] = tested on: expression of luciferase from AAV8-Lxp3.3-Gluc; test: Luciferase expression after AAV8-Lxp3.3-Gluc injection in aspirin-treated mice (Example 3); type: in vivo, C57BL/6J mice
Description: as §3, §2
(§4) The injection dose of 50 mg/kg aspirin was used in further study of AAV-mediated expression of exogenous genes by three different AAV serotypes. […] Blood sample were collected and expression level of luciferase was detected following the same methods as described in Example 2.

[4] = tested on: expression of luciferase from AAV9-Lxp3.3-Gluc; test: Luciferase expression after AAV9-Lxp3.3-Gluc injection in aspirin-treated mice (Example 3); type: in vivo, C57BL/6J mice
Description: as §3, §2, §4

[5] = tested on: expression of luciferase from AAV843-Lxp3.3-Gluc; test: Luciferase expression after AAV843-Lxp3.3-Gluc injection in aspirin-treated mice (Example 3); type: in vivo, C57BL/6J mice
Description: as §3, §2, §4

[6] = tested on: expression level of the transgene (AAV); test: Co-administration of AAV and aspirin, transgene expression (preliminary); type: in vivo; settings: co-administration of AAV and aspirin in one formulation or separate formulations at the same time; preliminary results
Source text: Studies have been conducted for co-administration of AAV and aspirin either in one formulation or in separate formulations but at the same time.

[7] = tested on: IFN-α; test: Serum IFN-α ELISA after AAV8, AAV9 or AAV843 injection in aspirin-treated mice (Example 4); type: in vivo, C57BL/6J mice
Description: as §3
(§5) The injection dose of 50 mg/kg aspirin was used in further study of AAV-mediated expression of exogenous genes by three different AAV serotypes. The study design was similar to that of Example 2. Briefly, for each AAV serotype (i.e., AAV8-Lxp3.3-Gluc, AAV9-Lxp3.3-Gluc, or AAV843-Lxp3.3-Gluc), male C57BL/6J mice (purchased from Shanghai Jiesijie Experimental Animals Co., Ltd.) (n=4) with an average weight of 20 g were divided into two groups. One group was injected with aspirin at 50 mg/kg for 7 consecutive days, and the other group was injected with 5% castor oil (in PBS buffer (catalogue number: 02-024-1ACS, BI)) as a control. On Day 8, 5×10^12 vg/kg of AAV8-Lxp3.3-Gluc, AAV9-Lxp3.3-Gluc, or AAV843-Lxp3.3-Gluc virus (diluted in 150-200 μl PBS) was delivered to each mouse by tail vein injection. Blood sample were collected and expression level of luciferase was detected following the same methods as described in Example 2.
(§6) In the study described in Example 3, the level of IFN-α and IFN-β were determined by using Mouse IFN-β ELISA kit (720131-2, Shanghai Mlbio Co., Ltd.), LEGEND MAX™ Mouse IFN-β ELISA Kit (439407, BioLegend), and Mouse IFN-α ELISA kit (706291-2, Shanghai Mlbio Co., Ltd.) according to the user's manual.

[8] = tested on: IFN-β; test: Serum IFN-β ELISA after AAV8, AAV9 or AAV843 injection in aspirin-treated mice (Example 4); type: in vivo, C57BL/6J mice
Description: as §3, §5, §6

[9] = tested on: Gluc expression from AAV9-CB-Gluc in brain; test: Gluc mRNA and enzymatic activity in brain after AAV9-CB-Gluc with aspirin (Example 6); type: in vivo, mice; settings: for enzymatic activity level of Gluc, up-regulation vs non-treatment group: p<0.01 (FIG. 7B)
Description: (§7) Expression of exogenous gene was detected in mice either pre-treated with Aspirin, or co-administered with Aspirin. AAV9-CB-Gluc was prepared according to methods provided in Example 1, except that nucleic acid sequence for CB promoter (see SEQ ID NO: 3) was used. In brief, Aspirin was pre-administrated to a group of mice at 50 mg/kg by intraperitoneal injection for 7 days, followed by administration of AAV9-CB-Gluc (5×10^13 vg/kg) at day 8. In comparison, a group of mice without pre-administration of Aspirin was administrated with Aspirin at 50 mg/kg simultaneously in combination with AAV9-CB-Gluc. 15 days after the AAV9-CB-Gluc administration, the mice were sacrificed, and brain and liver were collected for determination of expression Gluc.

[10] = tested on: Gluc expression from AAV9-CB-Gluc in liver; test: Gluc mRNA and enzymatic activity in liver after AAV9-CB-Gluc with aspirin (Example 6); type: in vivo, mice
Description: as §7

[11] = tested on: IDS enzyme activity in brain (AAV9-CB-IDS); test: IDS enzyme activity in brain of MPSII mice after AAV9-CB-IDS with aspirin pre-treatment (Example 7); type: in vivo, B6N.Cg-Ids^tm1Muen/J mice (MPSII model)
Description: The effects of aspirin on improving the expression of therapeutic transgene in brain were determined. AAV9-CB-IDS vector were produced using methods described in Example 1, except that iduronate 2-sulfatase (IDS) gene expression cassette was inserted between the AAV ITRs. The gene encoding IDS was provided in SEQ ID NO: 7 and the protein sequence of IDS was provided in SEQ ID NO: 11. […] A group of wild-type control mice was used as control. The AAV9-CB-IDS vector for treating MPSII was administrated as described in Example 1, at a dose of 3×10^13 vg/kg (i.e. 3E13 group) or 1×10^14 vg/kg (i.e. 1E14 group) to mice pre-treated with aspirin injection. One month after the AAV9-CB-IDS injection, the IDS enzyme activity was detected in brain (FIG. 8).

SMILES: CC(=O)Oc1ccccc1C(=O)O [aspirin, Acetylsalicylic acid]
- expression level of luciferase ([1]; 100 mg/kg of aspirin i.p. 7 days before AAV9-Lxp3.3-Gluc 5×10^12 vg/kg i.v., compared with other doses (FIG. 1)): highest expression level
- expression level of luciferase ([1]; aspirin i.p. 7 consecutive days at 1, 15, 30, 50, 100 mg/kg before AAV9-Lxp3.3-Gluc 5×10^12 vg/kg i.v., comparison across dose groups (FIG. 1)): dose dependent increase
- level of IFN-α on Day 3 ([2]; aspirin 50 mg/kg): significantly lower
- level of IFN-α on Day 3 ([2]; aspirin 100 mg/kg): significantly lower
- transduction in vivo (expression of luciferase) ([3]; aspirin 50 mg/kg 7 consecutive days, AAV8-Lxp3.3-Gluc 5×10^12 vg/kg tail vein, vs control (FIG. 3A)): remarkably promote
- day of peak expression of luciferase after AAV injection ([3]; aspirin 50 mg/kg 7 days, AAV8-Lxp3.3-Gluc, control groups also peaked on Day 15): 15 days
- transduction in vivo (expression of luciferase) ([4]; aspirin 50 mg/kg 7 consecutive days, AAV9-Lxp3.3-Gluc 5×10^12 vg/kg tail vein, vs control (FIG. 3B)): remarkably promote
- day of peak expression of luciferase after AAV injection ([4]; aspirin 50 mg/kg 7 days, AAV9-Lxp3.3-Gluc, control groups also peaked on Day 15): 15 days
- transduction in vivo (expression of luciferase) ([5]; aspirin 50 mg/kg 7 consecutive days, AAV843-Lxp3.3-Gluc 5×10^12 vg/kg tail vein, vs control (FIG. 3C)): remarkably promote
- day of peak expression of luciferase after AAV injection ([5]; aspirin 50 mg/kg 7 days, AAV843-Lxp3.3-Gluc, control groups also peaked on Day 15): 15 days
- expression level of the transgene [6]: increase the expression level of the transgene
- IFN-α level ([7]; after AAV8 injection, aspirin 50 mg/kg 7 days, control significantly higher except Day 31 (FIG. 4A)): maintained at a relatively low level
- IFN-α level ([7]; after AAV9 injection, aspirin 50 mg/kg 7 days, vs control group (FIG. 5A)): significantly lower than that in the control group
- IFN-α level ([7]; after AAV843 injection, Day 31, aspirin treatment vs control group (FIG. 6A)): no significant difference
- IFN-α level ([7]; after AAV843 injection, aspirin 50 mg/kg 7 days, vs control group, before Day 31 (FIG. 6A)): significantly lower than those in the control group
- IFN-β level in the control group versus the aspirin treatment group ([8]; after AAV8 injection, aspirin 50 mg/kg 7 days (FIG. 4B)): always significantly higher than that in the aspirin treatment group
- IFN-β level ([8]; after AAV9 injection, aspirin 50 mg/kg 7 days, Day 1 to Day 31, significantly different from control Day 1 to Day 23 (FIG. 5B)): maintained at a low level
- IFN-β level ([8]; after AAV843 injection, Day 31, aspirin treatment vs control group (FIG. 6B)): no significant difference
- IFN-β level ([8]; after AAV843 injection, aspirin 50 mg/kg 7 days, vs control group, before Day 31 (FIG. 6B)): significantly lower than those in the control group
- mRNA level of Gluc, up-regulation vs non-treatment group ([9]; aspirin 50 mg/kg simultaneously with AAV9-CB-Gluc, 15 days after AAV (FIG. 7A)): 2.95 fold
- enzymatic activity level of Gluc, up-regulation vs non-treatment group ([9]; aspirin 50 mg/kg simultaneously with AAV9-CB-Gluc, 15 days after AAV): 3.55 fold
- mRNA level of Gluc, up-regulation vs non-treatment group ([9]; pre-injection of aspirin 50 mg/kg i.p. 7 days, AAV9-CB-Gluc 5×10^13 vg/kg day 8, 15 days after AAV, p<0.01 (FIG. 7A)): 5.5 fold
- enzymatic activity level of Gluc, up-regulation vs non-treatment group ([9]; pre-injection of aspirin 50 mg/kg i.p. 7 days, AAV9-CB-Gluc 5×10^13 vg/kg day 8, 15 days after AAV): 7.13 fold
- mRNA level of Gluc vs non-treatment group ([10]; aspirin 50 mg/kg simultaneously with AAV9-CB-Gluc (FIG. 7C)): even lower than that of the non-treatment group
- level of enzymatic activity of Gluc vs non-treatment group ([10]; aspirin 50 mg/kg simultaneously with AAV9-CB-Gluc (FIG. 7D)): not significantly different
- level of enzymatic activity of Gluc, up-regulation vs non-treatment group ([10]; pre-injection of aspirin 50 mg/kg i.p. 7 days, AAV9-CB-Gluc 5×10^13 vg/kg, p<0.01 (FIG. 7D)): 1.95 fold
- level of mRNA of Gluc, up-regulation vs non-treatment group ([10]; pre-injection of aspirin 50 mg/kg i.p. 7 days, AAV9-CB-Gluc 5×10^13 vg/kg, p<0.05 (FIG. 7C)): 1.43 fold
- IDS enzyme activity in brain vs wild type mice group ([11]; aspirin pre-treatment (50 mg/kg) + AAV9-CB-IDS 3×10^13 vg/kg, one month after injection (FIG. 8)): even higher than that of the wild type mice group
- IDS enzyme activity in brain vs group receiving no aspirin but only AAV9-CB-IDS ([11]; aspirin pre-treatment + AAV9-CB-IDS 3×10^13 vg/kg vs AAV9-CB-IDS alone at 3×10^13 vg/kg (p<0.05) or 10^14 vg/kg, one month (FIG. 8)): significantly higher
